{"source": "PubChem BioAssay AID2060614", "about": "(Molecular Pharmacology Branch, DTP, NCI, 2025)", "system": "598228-144-R-J1-PDC complex spheroids, viability", "assay": "Anticancer human tumor 598228-144-R-J1-PDC patient-derived serous endometrial adenocarcinoma cell line growth inhibition [CLK]", "details": "for pIC50: curve of first compound; for viability, T/C: stronger effect = lower value", "from_the_text": "A high-throughput screen of multi-cell type tumor spheroids was designed to identify active combinations of […] and targeted small molecules. Complex spheroids include a stromal component modeled by human endothelial cells (HUVEC) and fibroblasts modeled by human mesenchymal stem cells (MSCs). The concentration ranges selected for each drug and investigational agent were based upon clinically achievable concentrations if the clinical Cmax of the agent was known.\nCompounds. The drugs and investigational agents: cirtuvivint (SM08502; NSC835563), CC-671 (NSC850746), vemurafenib (NSC761431), tapotoclax (NSC804041), sotorasib (NSC818433), adagrasib (NSC831453), MRTX-1133 (NSC836407), BAY2416964 (NSC825713), copanlisib (NSC816437), inavolisib (NSC800729), abemaciclib (NSC768073), osimertinib (NSC779217), entinostat (NSC756642), eltanexor (KPT-8602, NSC794443), venetoclax (NSC766270), ceralasertib (NSC777638), bortezomib (NSC756655), olaparib (NSC753686), talazoparib (NSC767125), alisertib (NSC759677), peposertib (NSC802822), gemcitabine (NSC613327), 5-fluorouracil (NSC19893), SN-38 (NSC673596), oxaliplatin (NSC266046), paclitaxel (NSC125973), and doxorubicin (NSC123127), were obtained from the National Cancer Institute (NCI) Developmental Therapeutics Program Chemical Repository. The FDA-approved anticancer drug set is available from the Developmental Therapeutics Program at https://dtp.cancer.gov/organization/dscb/obtaining/available plates.htm. […] The stock solutions were prepared in dimethyl sulfoxide (DMSO, Sigma-Aldrich, St. Louis, MO, cat. D2650), except for the platinum complexes which were prepared in saline (Quality Biological, Gaithersburg, MD, cat. 114-055-101), at 800-fold the tested concentration and stored at -70 degrees C prior to their use. All drugs and investigational agents were tested over a range starting from a high concentration at or near the clinical Cmax and decreasing in half-log increments. If the clinical Cmax for an agent had not been determined, the highest concentration tested was 10 microM.\nCell Culture. All cells were maintained in an incubator at 37 degrees C and 5% CO2 with 95% humidity. The PDC lines were cultured according to standard operating procedures established by the NCI PDMR. Briefly, all PDCs were thawed and cultured in Matrigel-coated flasks prepared with a working solution of 1X Ham's F-12 nutrient mix, without supplementation (Invitrogen, Waltham, MA, cat. 11765054), 100 U/mL penicillin-streptomycin (Invitrogen, cat. 15140122), and 2.5% Matrigel (Corning Inc., Corning, NY, cat. 354248) for the first three passages. The 947758-054-R-J2-PDC line was cultured in 6B/Colon 1A media, which includes advanced DMEM/F-12 (Thermo Fisher Scientific, cat. 12634028), 10 mM HEPES (Thermo Fisher Scientific, cat. 15630080), 1X GlutaMAX supplement (Thermo Fisher Scientific, cat. 35050061), 0.1 mg/mL primocin (InvivoGen, cat. ant-pm-2), 10% defined fetal bovine serum, heat inactivated (HyClone Laboratories Inc., cat. SH30070.03HI), 1.25 mM N-Acetyl-L-cysteine (Sigma-Aldrich, cat. A9165), 10 mM nicotinamide (Sigma-Aldrich, cat. N0636), 1X B-27 supplement (Thermo Fisher Scientific, cat. 17504044), 1X N-2 supplement (Thermo Fisher Scientific, cat. 17502048), and 10 microM Y-27632 dihydrochloride (Tocris Bioscience, cat. 1254). The 876862-298-R-J1-PDC was cultured in 6E media, which includes all 6B/Colon 1A media components plus 50% L-WRN conditioned media (ATCC, cat. CRL-3276), 50 ng/mL recombinant human EGF recombinant protein (hEGF; Thermo Fisher Scientific, cat. PHG0311), 10 ng/mL recombinant human fibroblast growth factor 10 (hGFG-10; PeproTech, cat. 100-26), 1 ng/mL recombinant human fibroblast growth factor 2 (hFGF-2; PeproTech, cat. 100-18B), and 1 µM prostaglandin E2 (PGE2; Tocris, cat. 2296). The 227483-062-R1-J1-PDC line was cultured in Panc media, containing all 6E components except hFGF-2, with the addition of 500 nM SB-431542 (Selleckchem, cat. S1067) and 10 nM gastrin (Tocris, cat. 3006). […]", "note": "pIC50: −log10 of the molar value.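 Also: spheroids exposed to compounds for seven days before readout.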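 For viability, T/C in this document: 100% = DMSO vehicle control wells.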", "data": [{"smiles": "CCN1CCN(Cc2ccc(Nc3ncc(F)c(-c4cc(F)c5nc(C)n(C(C)C)c5c4)n3)nc2)CC1", "note": "+ CNC(=O)c1ccc(Nc2nc(OC3CCCC3)c3c(-c4ccc5nc(C)oc5c4)c[nH]c3n2)c(OC)c1", "values": [{"measurement": "pIC50", "setting": "second compound 0.0316 µM", "value": "< 6.00"}, {"measurement": "pIC50", "setting": "second compound 0.1 µM", "value": "< 6.00"}, {"measurement": "pIC50", "setting": "second compound 0.316 µM", "value": "< 6.00"}, {"measurement": "pIC50", "setting": "second compound 1 µM", "value": "< 6.00"}, {"measurement": "pIC50", "setting": "second compound 3.16 µM", "value": "< 6.00"}, {"measurement": "pIC50", "setting": "second compound 10 µM", "value": "< 6.00"}, {"measurement": "viability, T/C", "setting": "second compound 0.0316 µM, first compound 0.00316 µM", "value": 104, "unit": "%"}, {"measurement": "viability, T/C", "setting": "second compound 0.0316 µM, first compound 0.01 µM", "value": 114, "unit": "%"}, {"measurement": "viability, T/C", "setting": "second compound 0.0316 µM, first compound 0.0316 µM", "value": 105, "unit": "%"}, {"measurement": "viability, T/C", "setting": "second compound 0.0316 µM, first compound 0.1 µM", "value": 116, "unit": "%"}, {"measurement": "viability, T/C", "setting": "second compound 0.0316 µM, first compound 0.316 µM", "value": 112, "unit": "%"}, {"measurement": "viability, T/C", "setting": "second compound 0.0316 µM, first compound 1 µM", "value": 88.8, "unit": "%"}, {"measurement": "viability, T/C", "setting": "second compound 0.1 µM, first compound 0.00316 µM", "value": 110, "unit": "%"}, {"measurement": "viability, T/C", "setting": "second compound 0.1 µM, first compound 0.01 µM", "value": 110, "unit": "%"}, {"measurement": "viability, T/C", "setting": "second compound 0.1 µM, first compound 0.0316 µM", "value": 126, "unit": "%"}, {"measurement": "viability, T/C", "setting": "second compound 0.1 µM, first compound 0.1 µM", "value": 109, "unit": "%"}, {"measurement": "viability, T/C", "setting": "second compound 0.1 µM, first compound 0.316 µM", "value": 120, "unit": "%"}, {"measurement": "viability, T/C", "setting": "second compound 0.1 µM, first compound 1 µM", "value": 97.5, "unit": "%"}, {"measurement": "viability, T/C", "setting": "second compound 0.316 µM, first compound 0.00316 µM", "value": 119, "unit": "%"}, {"measurement": "viability, T/C", "setting": "second compound 0.316 µM, first compound 0.01 µM", "value": 107, "unit": "%"}, {"measurement": "viability, T/C", "setting": "second compound 0.316 µM, first compound 0.0316 µM", "value": 118, "unit": "%"}, {"measurement": "viability, T/C", "setting": "second compound 0.316 µM, first compound 0.1 µM", "value": 99, "unit": "%"}, {"measurement": "viability, T/C", "setting": "second compound 0.316 µM, first compound 0.316 µM", "value": 108, "unit": "%"}, {"measurement": "viability, T/C", "setting": "second compound 0.316 µM, first compound 1 µM", "value": 87.5, "unit": "%"}, {"measurement": "viability, T/C", "setting": "second compound 1 µM, first compound 0.00316 µM", "value": 105, "unit": "%"}, {"measurement": "viability, T/C", "setting": "second compound 1 µM, first compound 0.01 µM", "value": 89.8, "unit": "%"}, {"measurement": "viability, T/C", "setting": "second compound 1 µM, first compound 0.0316 µM", "value": 91.8, "unit": "%"}, {"measurement": "viability, T/C", "setting": "second compound 1 µM, first compound 0.1 µM", "value": 119, "unit": "%"}, {"measurement": "viability, T/C", "setting": "second compound 1 µM, first compound 0.316 µM", "value": 106, "unit": "%"}, {"measurement": "viability, T/C", "setting": "second compound 1 µM, first compound 1 µM", "value": 78.6, "unit": "%"}, {"measurement": "viability, T/C", "setting": "second compound 3.16 µM, first compound 0.00316 µM", "value": 95.2, "unit": "%"}, {"measurement": "viability, T/C", "setting": "second compound 3.16 µM, first compound 0.01 µM", "value": 92.5, "unit": "%"}, {"measurement": "viability, T/C", "setting": "second compound 3.16 µM, first compound 0.0316 µM", "value": 82.3, "unit": "%"}, {"measurement": "viability, T/C", "setting": "second compound 3.16 µM, first compound 0.1 µM", "value": 92.5, "unit": "%"}, {"measurement": "viability, T/C", "setting": "second compound 3.16 µM, first compound 0.316 µM", "value": 95.8, "unit": "%"}, {"measurement": "viability, T/C", "setting": "second compound 3.16 µM, first compound 1 µM", "value": 93, "unit": "%"}, {"measurement": "viability, T/C", "setting": "second compound 10 µM, first compound 0.00316 µM", "value": 95.5, "unit": "%"}, {"measurement": "viability, T/C", "setting": "second compound 10 µM, first compound 0.01 µM", "value": 89.4, "unit": "%"}, {"measurement": "viability, T/C", "setting": "second compound 10 µM, first compound 0.0316 µM", "value": 90.2, "unit": "%"}, {"measurement": "viability, T/C", "setting": "second compound 10 µM, first compound 0.1 µM", "value": 96.8, "unit": "%"}, {"measurement": "viability, T/C", "setting": "second compound 10 µM, first compound 0.316 µM", "value": 108, "unit": "%"}, {"measurement": "viability, T/C", "setting": "second compound 10 µM, first compound 1 µM", "value": 80.5, "unit": "%"}]}]}
